{"source": "patent US9611314B2", "about": "“Functional peptide analogs of PEDF” (The Penn State Research Foundation, priority 2013, dated 2017)", "key": {"VEGFA": {"test_system": "VEGFA", "assay": "VEGFA secretion by RPE cells, Luminex", "type": "cell-based, human", "details": "for effect in reducing VEGFA levels compared to P78: 25 nM peptide, serum starvation", "description": "(§1) The analogs were tested for their efficacy in reducing levels of TNFα, IFNγ, VEGF-A and increasing cell viability in in vitro assays. Efficacy was compared to both non-treated oxidative stressed controls and the control standard P78.\n(§2) Briefly, to test efficacy of the compounds in preventing cell death, experiments were performed to screen for the ability of each analog to: 1) increase cellular bioenergetic levels in an ATP assay and 2) reduce cell death in an LDH assay. To test the action of each analog on inflammatory processes, Luminex bead arrays were used to examine the ability of each analog to decrease production of inflammatory cytokines. To test for the potential of each analog to reduce vascular leakage, qPCR was used to examine the ability of each analog to increase mRNA levels of ZO1 and occludin, two junction proteins essential to vascular integrity. To test peptide stability in the vitreous, the analogs were incubated with dissected vitreous humor and the samples were analyzed at various time points using Maldi-TOF. These tests allowed for the systematic selection of analogs having the least toxicity and the strongest potential to reduce pathology in vivo.\nExperiments were designed to assess the effects of each peptide compared to P78 on the inflammatory and vascular permeability/angiogenesis cytokines TNFα, IFNγ, and VEGFA. Briefly, human retinal RPE cells were grown to ˜75% confluency in 10% serum containing medium. The cells were then exposed to serum starvation in the presence or absence (control) of 25 nM of each peptide including the prototype P78 and the active fragment of P78, SpxA1. The supernatant from each treatment was tested for effects on the secretion of TNFα, IFNγ, and VEGFA. The data represent the percent change to the control samples and p values are given for each peptide in relationship to the P78 treatment (FIGS. 3A through 3B)."}, "RPE cultures": {"test_system": "RPE cultures", "assay": "In vitro tests of inflammation, angiogenesis and cell viability, summarised together", "type": "cell-based, human", "details": "assays other than VEGFA", "description": "as §1\nThe analogs disclosed in Table 1 were assayed for improved stability and efficacy in in vitro assays for inflammation, angiogenesis, and cell death, which are the three leading pathological features of diabetic retinopathy.\nas §2, with “These tests allowed for the systematic selection of analogs having the least toxicity and the strongest potential to reduce pathology in vivo.” left out"}, "[1]": {"assay": "Peptide bioavailability in mouse vitreous after 5 μg eye drop (MALDI TOF)", "type": "in vivo, C57BL/6 mice", "details": "compared to P78 and SpxA1", "description": "Before the longitudinal efficacy studies were carried out in vivo, the bioavailability of the five analogs was examined in comparison to the parent compound P78 and its active 29-mer derivative, SpxA1.\nBioavailability of each peptide was determined in vitreous samples obtained at various time points after eye drops were given. Vitreous samples were harvested from enucleated eyes and immediately analyzed by mass spectrometry. Spectral intensities were compared to spectra of known concentrations of each analog to calculate amounts of peptides reaching the vitreous. The eye drops administered to normal mouse eyes contained 5 μg of the test compound. Bioavailability was studied at three time points: 1, 4, 6 hr using four animals/time point (n=8 eyes). The vitreous was rapidly dissected from each group after the drops were given and immediately analyzed by MALDI TOF."}, "in vivo": {"assay": "in vivo", "design": "species or system rodents", "details": "topical or ocular, 2 ug", "description": "In addition, bioavailability studies of the peptides in rodent eyes were conducted and the results were compared to the control standard P78 peptide. For example, the peptides were tested in bioavailability studies in rodents at 1, 2, 4, 8 hrs (n=4 each peptide/time pt). The animals were given a single eye drop containing 2 μg of each peptide. At each time point the animals were sacrificed, vitreous harvested, and bioavailability assessed by Maldi TOF."}, "ZO1 and occludin": {"test_system": "ZO1 and occludin", "assay": "qPCR of tight junction mRNA (potential to reduce vascular leakage)", "type": "cell-based", "details": "compared to P78 and SpxA1", "description": "as §2\nTo test for the potential of each peptide (81-2, 81-5, 81-12, 81-13 and 81-20) to reduce vascular leakage, qPCR was used to examine the ability of each analog to increase mRNA levels of Z01, a junction protein essential to vascular integrity (FIG. 4A)."}, "human ARPE19 cells": {"test_system": "human ARPE19 cells", "assay": "Cell viability by ATP levels (CellTiter-Glo), serum starvation or H2O2", "type": "cell-based", "details": "for ATP viability tests: selection for in vivo studies: serum starvation and 300 uM H2O2, 25 nM peptide, 48 hr", "description": "as §1, §2\nThe effects of the peptides to increase cell viability by increasing levels of ATP were tested in two models of cell death: (i) serum starvation; (ii) oxidative stress caused by hydrogen peroxide toxicity (300 uM). With respect to serum starvation, human ARPE19 cells were grown to ˜85% confluency in 10% serum containing medium after which the cells were placed in serum-free medium for 48 hr in the presence or absence (control) of 25 nM of each peptide. For ATP assay, CellTiter-Glo® reagents were used and luminescence was determined after 12 min spectrophotometrically (n=4) (FIG. 2A). With respect to oxidative stress, human ARPE19 cells were grown to ˜85% confluency in 10% serum containing medium. The cells were then treated with 300 uM H2O2 for 48 hours in the presence or absence (control) of 25 nM of each peptide. Levels of ATP were measured and % luminescence to controls and P78 was quantitated (n=4). Changes to ATP levels are plotted against control values and p values are given to P78 (FIG. 2B)."}, "VEGF": {"test_system": "VEGF", "assay": "Vitreous VEGF after 15 wks eye drops (Luminex)", "type": "in vivo, Ins2Akita mouse", "details": "5 μg eye drop 2×/wk for 15 wks, relative to diabetic controls", "description": "From the in vitro P78 peptide analog screening studies, five structurally diverse analogs with best biological activity were selected to test their efficacy in the diabetic mouse eye. In vivo effects of these peptides were tested in the Ins2Akita mouse model of DR, a well-characterized DR model that has a mutation in the insulin gene. Heterozygote Ins2Akita mice (Jackson Lab) become hyperglycemic (HG) at ˜4.5 wks of age. RGC death and inflammation occur within the first 4-6 wks of DR and vascular pathology is first noticed ˜13 wks after the onset of diabetes. The studies were designed to identify peptide candidates with pleotrophic effects on cell death, inflammation, and vascular leakage in the diabetic retina.\nMale hyperglycemic mice with blood glucose levels >300 mg/dL were used and treatments carried as previously described for P78 (Liu et al., 2012, Mol. Med., 18(1): 1387-1401). Diabetic mice were treated 2×/wk for 15 wks at the onset of HG using a single dose of 5 μg/5 μl artificial tears for each drug, a dose at which P78 is effective. Both eyes received the same treatment to avoid drug cross contamination between the eyes of an individual animal. […]\nLevels of VEGF were also quantitated in the vitreous of the 15 wks peptide treated and control groups using the Luminex bead technology. […]"}, "HUVEC": {"test_system": "HUVEC", "assay": "VEGF-mediated HUVEC tube formation on human dermal fibroblasts", "type": "cell-based", "details": "100 nM peptide, 4 ng/ml VEGF, 12 days; compared to VEGF", "description": "Human dermal fibroblasts were cultured at 1×10^5/well in IncuCyte seeding medium (Essen Bioscience) in 96 wells plates for 1 hr. Medium was removed and replaced with complete IncuCyte growth medium (Essen Bioscience). Human umbilical vein endothelial cells (HUVEC) containing a green fluorescent marker (HUVEC CytoLight green) cells at 2000 cells/well were/well to attached dermal fibroblasts cultures and placed in the IncuCyte Zoom fluorescent and phase contrast multiplex imaging incubator (Essen BioScience). Twenty four hours later 4 ng/ml VEGF was added to all wells and 100 nM/ml PEDF peptides added to test wells. Cultures containing VEGF alone were used as positive controls and those containing 100 μM Suramin (VEGF inhibitor) used as negative controls. The cultures were placed at 37° C. in the Incucyte Zoom and HUVEC tube length networks measured over a 12 day incubation period using the Incucyte CellPlayer Angiogenesis software module and interface systems. Media was refreshed every 3-4 days."}, "IFNγ": {"test_system": "IFNγ", "assay": "IFNγ secretion by RPE cells, Luminex", "type": "cell-based, human", "description": "as §1, §2\n(§3) Experiments were designed to assess the effects of each peptide compared to P78 on the inflammatory and vascular permeability/angiogenesis cytokines TNFα, IFNγ, and VEGFA. […]"}, "TNFα": {"test_system": "TNFα", "assay": "TNFα secretion by RPE cells, Luminex", "type": "cell-based, human", "description": "as §1, §2, §3"}, "[2]": {"details": "change versus control standard P78"}, "[3]": {"details": "change versus non-treated stressed control (C)"}}, "note": "Where a SMILES comes first, the peptide text is derived from it. Where no end group is shown, it is not given here. [ ]: non-standard residue; d: D form. The star is where a group is joined. 1Nal = N[C@@H](Cc1cccc2ccccc12)C(=O)O; AEEA = NCCOCCOCC(=O)O; Butyryl = CCCC(=O)*"}
{"compound": "FGADERTESIIHR [Peptide 81-19]", "values": [{"measurement": "effect in reducing VEGFA levels compared to P78", "setting": "VEGFA", "result": "significantly better effects in reducing VEGFA levels"}, {"measurement": "effect on the other assays compared to P78", "setting": "RPE cultures", "result": "less effective than P78"}]}
{"compound": "CCCC(=O)N[C@@H](CO)C(=O)N[C@@H](C)C(=O)N[C@H](C(=O)N[C@@H](CO)C(=O)N[C@H](C(=O)NCC(=O)N[C@@H](C)C(=O)N[C@@H](CC(=O)O)C(=O)N[C@@H](C)C(=O)N[C@@H](CCCNC(=N)N)C(=O)N[C@H](C(=O)N[C@@H](C)C(=O)N[C@@H](CO)C(=O)N[C@H](C(=O)N[C@H](C(=O)N[C@@H](Cc1c[nH]cn1)C(=O)N[C@@H](CCCNC(=N)N)C(=O)NCCOCCOCC(=O)O)[C@@H](C)CC)[C@@H](C)CC)[C@@H](C)O)[C@@H](C)CC)[C@@H](C)CC", "note": "[Peptide 81-5, {BA*}SAISIGADARTASIIHR{PEG*}] (Butyryl-SAISIGADARTASIIHR[AEEA]-OH)", "values": [{"measurement": "stability profile in the vitreous after 6 hr", "setting": "[1]", "result": "best stability profile"}]}
{"compound": "VLLSPLSVATALSALSLGADERTESIIHR [SpxA1]", "values": [{"measurement": "level at 4 h", "setting": "in vivo", "result": 920, "unit": "ng/mL"}]}
{"compound": "VLLSPLSVATALSAISIGADARTASIIHR [Peptide 81-10]", "values": [{"measurement": "effect in reducing VEGFA levels compared to P78", "setting": "VEGFA", "result": "significantly better effects in reducing VEGFA levels"}, {"measurement": "effect on the other assays compared to P78", "setting": "RPE cultures", "result": "less effective than P78"}]}
{"compound": "SAISIGADARTASIIHR [Peptide 81-3, SAISIGADARTASIIHR]", "values": [{"measurement": "level at 4 h", "setting": "in vivo", "result": 2280, "unit": "ng/mL"}]}
{"compound": "SAISIGADERTESIIHR [Peptide 81-2, SAISIGADERTESIIHR]", "values": [{"measurement": "level at 4 h", "setting": "in vivo", "result": 2000, "unit": "ng/mL"}]}
{"compound": "{BA*}NFGYDLYRVRSSMSPTTNSALSLGADERTESIIHR{PEG*} (not fully specified (N-terminus, C-terminus); printed as {BA*}NFGYDLYRVRSSMSPTTNSALSLGADERTESIIHR{PEG*}) [Peptide 81-12, P60 + 81-1, butyric acid at N-terminus, PEGylated at C-terminus]", "values": [{"measurement": "ZO1 mRNA expression", "setting": "ZO1 and occludin", "result": "higher expression of ZO1 compared to P78 and SpxA1"}, {"measurement": "ATP viability tests: selection for in vivo studies", "setting": "human ARPE19 cells", "result": "good candidates for the in vivo studies"}, {"measurement": "VEGF levels in the vitreous", "setting": "VEGF", "result": "slightly but significantly more effective"}, {"measurement": "inhibition of HUVEC tube formation", "setting": "HUVEC", "result": "prevented tube formation compared to VEGF but less effective"}]}
{"compound": "L-1-NALGADERTESIIHR ([1Nal]GADERTESIIHR) [Peptide 81-20]", "values": [{"measurement": "ZO1 mRNA expression", "setting": "ZO1 and occludin", "result": "higher expression of ZO1 compared to P78 and SpxA1"}, {"measurement": "ATP viability tests: selection for in vivo studies", "setting": "human ARPE19 cells", "result": "good candidates for the in vivo studies"}, {"measurement": "inhibition of HUVEC tube formation", "setting": "HUVEC", "result": "prevented tube formation compared to VEGF but less effective"}]}
{"compound": "SALSLGADERTESIIHR [Peptide 81-1, SALSLGADERTESIIHR]", "values": [{"measurement": "level at 4 h", "setting": "in vivo", "result": 1800, "unit": "ng/mL"}]}
{"compound": "VLLSPLSVATALSALSLGADERTESIIHRALYYDLISSPDIHGT [Peptide P-78, reference compound]", "values": [{"measurement": "level at 4 h", "setting": "in vivo", "result": 1200, "unit": "ng/mL"}]}
{"compound": "{BA*}VLLSPLSVATALSAISIGADARTASIIHR{PEG*} (VLLSPLSVATALSAISIGADARTASIIHR[AEEA]; not fully specified (N-terminus); printed as {BA*}VLLSPLSVATALSAISIGADARTASIIHR{PEG*}) [Peptide 81-4, butyric acid on N-terminus, PEG2-CH2COOH at C-terminus]", "values": [{"measurement": "*ATP % to P78", "setting": "human ARPE19 cells; [2]", "result": 9, "unit": "%"}, {"measurement": "*ATP % to C", "setting": "human ARPE19 cells; [3]", "result": "+7%"}, {"measurement": "*IFNγ % to P78", "setting": "IFNγ; [2]", "result": "−11", "unit": "%"}, {"measurement": "*IFNγ % to C", "setting": "IFNγ; [3]", "result": "−15", "unit": "%"}, {"measurement": "*VEGF % to P78", "setting": "VEGFA; [2]", "result": "−0", "unit": "%"}, {"measurement": "*VEGF % to C", "setting": "VEGFA; [3]", "result": "−11", "unit": "%"}, {"measurement": "*TNFα % to P78", "setting": "TNFα; [2]", "result": "−8", "unit": "%"}, {"measurement": "*TNFα % to C", "setting": "TNFα; [3]", "result": "−2", "unit": "%"}]}
